Test [1] has as its target T1, Alpha-1A adrenergic receptor (Homo sapiens, UniProt P35348).
T1 sequence (P35348 whole entry): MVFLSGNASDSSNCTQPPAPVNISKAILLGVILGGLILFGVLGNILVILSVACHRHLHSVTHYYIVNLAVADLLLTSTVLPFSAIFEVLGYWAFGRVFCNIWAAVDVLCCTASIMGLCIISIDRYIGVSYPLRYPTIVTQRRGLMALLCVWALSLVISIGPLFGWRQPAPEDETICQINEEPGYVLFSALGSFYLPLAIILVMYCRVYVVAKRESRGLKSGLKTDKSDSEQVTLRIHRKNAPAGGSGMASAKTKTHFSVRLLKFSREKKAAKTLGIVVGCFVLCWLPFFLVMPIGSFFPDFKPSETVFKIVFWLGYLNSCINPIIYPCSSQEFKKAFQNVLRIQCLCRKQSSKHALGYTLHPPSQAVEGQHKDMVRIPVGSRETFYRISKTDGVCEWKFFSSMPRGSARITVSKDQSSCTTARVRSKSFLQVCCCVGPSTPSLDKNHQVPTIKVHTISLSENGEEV
The test is classed as functional, cell-based.

In test [2] the target is T1, Alpha-1A adrenergic receptor.
For test [3], the target named is Voltage-dependent L-type calcium channel subunit alpha-1C (Rattus norvegicus, UniProt P22002). Format: functional.
Test [4] has as its target Mu-type opioid receptor (Homo sapiens, UniProt P35372).
The target of test [5] is T2, 5-hydroxytryptamine receptor 3A (Homo sapiens, UniProt P46098).
T2 sequence (P46098 whole entry): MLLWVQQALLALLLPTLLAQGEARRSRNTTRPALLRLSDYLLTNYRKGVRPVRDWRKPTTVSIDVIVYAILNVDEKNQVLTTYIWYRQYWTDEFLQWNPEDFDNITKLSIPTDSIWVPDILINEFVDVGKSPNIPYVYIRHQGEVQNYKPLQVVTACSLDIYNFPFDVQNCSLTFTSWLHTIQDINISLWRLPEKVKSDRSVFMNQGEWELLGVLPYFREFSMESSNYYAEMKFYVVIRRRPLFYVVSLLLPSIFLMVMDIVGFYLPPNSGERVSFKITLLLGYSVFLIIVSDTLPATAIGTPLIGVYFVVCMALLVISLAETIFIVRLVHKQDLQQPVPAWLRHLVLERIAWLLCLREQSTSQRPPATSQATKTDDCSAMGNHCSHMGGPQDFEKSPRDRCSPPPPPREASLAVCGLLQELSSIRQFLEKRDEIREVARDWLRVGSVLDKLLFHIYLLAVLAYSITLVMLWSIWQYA
The test is classed as functional.

Test [6] deals with 3',5'-cyclic-AMP phosphodiesterase 4D (Homo sapiens, UniProt Q08499). Format: functional.
The target in test [7] is Histamine H3 receptor (Homo sapiens, UniProt Q9Y5N1).
Test [8] deals with T3, 5-hydroxytryptamine receptor 2B (Homo sapiens, UniProt P41595). The test is classed as functional, cell-based.
The target in test [9] is T3, 5-hydroxytryptamine receptor 2B. The test is classed as functional, cell-based. The source holds these as a separate data set.
Test [10] has as its target Cannabinoid receptor 1 (Homo sapiens, UniProt P21554). The test is classed as functional, cell-based.
For test [11], the target named is T4, Prostaglandin G/H synthase 1 (Rattus norvegicus, UniProt Q63921).
T4 sequence (Q63921 whole entry): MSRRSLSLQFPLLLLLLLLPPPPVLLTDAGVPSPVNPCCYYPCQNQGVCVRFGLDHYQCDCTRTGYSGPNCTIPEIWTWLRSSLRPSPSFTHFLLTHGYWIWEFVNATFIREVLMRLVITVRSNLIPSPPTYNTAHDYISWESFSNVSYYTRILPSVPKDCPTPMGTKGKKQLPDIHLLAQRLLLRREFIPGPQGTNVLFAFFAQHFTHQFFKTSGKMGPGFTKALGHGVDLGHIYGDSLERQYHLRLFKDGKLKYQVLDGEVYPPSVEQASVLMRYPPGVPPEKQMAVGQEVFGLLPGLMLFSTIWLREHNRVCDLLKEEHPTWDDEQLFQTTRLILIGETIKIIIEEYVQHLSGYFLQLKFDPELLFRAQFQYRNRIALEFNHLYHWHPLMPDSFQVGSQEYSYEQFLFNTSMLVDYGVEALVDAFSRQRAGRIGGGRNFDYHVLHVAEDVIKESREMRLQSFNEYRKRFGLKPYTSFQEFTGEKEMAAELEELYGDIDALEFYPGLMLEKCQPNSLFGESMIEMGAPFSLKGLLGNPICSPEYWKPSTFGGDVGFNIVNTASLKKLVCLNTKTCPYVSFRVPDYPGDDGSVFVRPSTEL
Format: functional.

Test [12] addresses T5, Adenosine receptor A1 (Homo sapiens, UniProt P30542).
T5 sequence (P30542 whole entry): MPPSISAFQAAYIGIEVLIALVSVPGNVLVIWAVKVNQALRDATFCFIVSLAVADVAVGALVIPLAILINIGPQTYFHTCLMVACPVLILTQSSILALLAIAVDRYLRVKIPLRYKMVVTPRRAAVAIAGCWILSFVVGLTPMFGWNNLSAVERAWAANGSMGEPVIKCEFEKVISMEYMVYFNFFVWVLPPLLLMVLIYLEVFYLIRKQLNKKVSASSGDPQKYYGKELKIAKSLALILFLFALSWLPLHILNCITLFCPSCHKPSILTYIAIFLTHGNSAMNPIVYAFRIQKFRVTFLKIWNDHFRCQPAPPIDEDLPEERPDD

For test [13], the target named is T6, Adenosine receptor A3 (Homo sapiens, UniProt P0DMS8).
T6 sequence (P0DMS8 whole entry): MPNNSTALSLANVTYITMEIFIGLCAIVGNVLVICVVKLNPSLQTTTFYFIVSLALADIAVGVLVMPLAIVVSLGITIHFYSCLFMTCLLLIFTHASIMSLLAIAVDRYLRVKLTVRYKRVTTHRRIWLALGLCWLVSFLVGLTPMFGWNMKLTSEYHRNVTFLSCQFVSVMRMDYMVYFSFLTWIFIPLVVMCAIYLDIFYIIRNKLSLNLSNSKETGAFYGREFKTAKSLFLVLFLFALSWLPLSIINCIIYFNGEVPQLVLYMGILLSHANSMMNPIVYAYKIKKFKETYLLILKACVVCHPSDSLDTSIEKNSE

Test [14] deals with D(3) dopamine receptor (Homo sapiens, UniProt P35462).
Test [15] concerns the target 5-hydroxytryptamine receptor 2A (Homo sapiens, UniProt P28223). The test is classed as functional, cell-based.

Bounds are passed on as bounds.
Note: assay procedure not described here.

Cannabinoid receptor 1, sequence (P21554 whole entry): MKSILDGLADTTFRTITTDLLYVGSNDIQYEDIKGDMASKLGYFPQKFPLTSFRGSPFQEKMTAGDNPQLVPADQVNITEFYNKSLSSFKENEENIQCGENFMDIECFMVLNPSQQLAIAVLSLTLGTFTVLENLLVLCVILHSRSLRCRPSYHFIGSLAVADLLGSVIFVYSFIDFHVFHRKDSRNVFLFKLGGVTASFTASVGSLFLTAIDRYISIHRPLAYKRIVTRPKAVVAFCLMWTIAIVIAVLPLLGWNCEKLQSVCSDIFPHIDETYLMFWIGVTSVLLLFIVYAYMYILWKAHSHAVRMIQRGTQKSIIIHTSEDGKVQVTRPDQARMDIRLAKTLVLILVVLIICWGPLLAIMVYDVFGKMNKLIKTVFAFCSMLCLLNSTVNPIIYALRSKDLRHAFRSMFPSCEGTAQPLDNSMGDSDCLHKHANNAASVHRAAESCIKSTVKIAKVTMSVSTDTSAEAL
D(3) dopamine receptor, sequence (P35462 whole entry): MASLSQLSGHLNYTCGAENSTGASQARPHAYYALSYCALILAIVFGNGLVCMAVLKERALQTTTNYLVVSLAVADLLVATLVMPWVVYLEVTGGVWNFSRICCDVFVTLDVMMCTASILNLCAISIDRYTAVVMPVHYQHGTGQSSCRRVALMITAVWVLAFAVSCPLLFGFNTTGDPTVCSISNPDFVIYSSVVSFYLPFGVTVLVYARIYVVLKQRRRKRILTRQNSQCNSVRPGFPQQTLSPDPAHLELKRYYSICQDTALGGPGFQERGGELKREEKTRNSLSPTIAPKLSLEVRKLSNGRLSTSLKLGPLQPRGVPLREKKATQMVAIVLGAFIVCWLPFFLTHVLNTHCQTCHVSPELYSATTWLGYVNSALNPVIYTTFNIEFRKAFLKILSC
3',5'-cyclic-AMP phosphodiesterase 4D, sequence (Q08499 whole entry): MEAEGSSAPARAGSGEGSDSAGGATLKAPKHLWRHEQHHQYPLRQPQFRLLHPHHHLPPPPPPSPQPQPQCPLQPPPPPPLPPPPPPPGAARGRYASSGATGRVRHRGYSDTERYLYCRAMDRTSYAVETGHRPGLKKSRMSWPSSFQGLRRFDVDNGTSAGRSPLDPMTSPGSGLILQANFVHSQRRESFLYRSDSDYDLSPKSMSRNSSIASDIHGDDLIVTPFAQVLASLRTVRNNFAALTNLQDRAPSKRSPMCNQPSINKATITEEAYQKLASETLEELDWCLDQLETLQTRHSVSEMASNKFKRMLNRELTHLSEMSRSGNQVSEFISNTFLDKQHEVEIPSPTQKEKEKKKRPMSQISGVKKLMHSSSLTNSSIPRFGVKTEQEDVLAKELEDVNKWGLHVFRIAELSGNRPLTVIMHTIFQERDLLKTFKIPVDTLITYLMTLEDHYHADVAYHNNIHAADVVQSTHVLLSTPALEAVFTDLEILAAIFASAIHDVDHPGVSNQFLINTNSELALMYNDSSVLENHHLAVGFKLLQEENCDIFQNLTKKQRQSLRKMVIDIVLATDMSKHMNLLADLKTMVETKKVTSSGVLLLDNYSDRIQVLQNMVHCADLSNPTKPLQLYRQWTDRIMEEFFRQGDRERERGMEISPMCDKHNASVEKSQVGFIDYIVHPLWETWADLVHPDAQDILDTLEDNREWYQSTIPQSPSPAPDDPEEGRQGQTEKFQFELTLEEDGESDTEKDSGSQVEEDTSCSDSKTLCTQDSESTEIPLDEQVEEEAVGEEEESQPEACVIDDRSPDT
Histamine H3 receptor, sequence (Q9Y5N1 whole entry): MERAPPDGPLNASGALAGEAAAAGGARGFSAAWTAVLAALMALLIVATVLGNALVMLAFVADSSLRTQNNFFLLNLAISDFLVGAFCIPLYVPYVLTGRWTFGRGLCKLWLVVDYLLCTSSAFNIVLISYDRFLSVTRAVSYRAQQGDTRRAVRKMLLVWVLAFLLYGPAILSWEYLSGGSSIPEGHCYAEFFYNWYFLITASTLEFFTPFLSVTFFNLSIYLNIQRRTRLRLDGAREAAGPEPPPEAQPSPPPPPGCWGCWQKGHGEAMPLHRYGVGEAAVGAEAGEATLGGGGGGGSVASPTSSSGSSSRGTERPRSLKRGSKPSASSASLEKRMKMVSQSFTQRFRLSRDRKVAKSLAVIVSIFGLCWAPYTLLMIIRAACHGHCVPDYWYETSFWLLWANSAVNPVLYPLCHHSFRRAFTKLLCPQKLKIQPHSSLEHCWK
Voltage-dependent L-type calcium channel subunit alpha-1C, sequence (P22002 whole entry): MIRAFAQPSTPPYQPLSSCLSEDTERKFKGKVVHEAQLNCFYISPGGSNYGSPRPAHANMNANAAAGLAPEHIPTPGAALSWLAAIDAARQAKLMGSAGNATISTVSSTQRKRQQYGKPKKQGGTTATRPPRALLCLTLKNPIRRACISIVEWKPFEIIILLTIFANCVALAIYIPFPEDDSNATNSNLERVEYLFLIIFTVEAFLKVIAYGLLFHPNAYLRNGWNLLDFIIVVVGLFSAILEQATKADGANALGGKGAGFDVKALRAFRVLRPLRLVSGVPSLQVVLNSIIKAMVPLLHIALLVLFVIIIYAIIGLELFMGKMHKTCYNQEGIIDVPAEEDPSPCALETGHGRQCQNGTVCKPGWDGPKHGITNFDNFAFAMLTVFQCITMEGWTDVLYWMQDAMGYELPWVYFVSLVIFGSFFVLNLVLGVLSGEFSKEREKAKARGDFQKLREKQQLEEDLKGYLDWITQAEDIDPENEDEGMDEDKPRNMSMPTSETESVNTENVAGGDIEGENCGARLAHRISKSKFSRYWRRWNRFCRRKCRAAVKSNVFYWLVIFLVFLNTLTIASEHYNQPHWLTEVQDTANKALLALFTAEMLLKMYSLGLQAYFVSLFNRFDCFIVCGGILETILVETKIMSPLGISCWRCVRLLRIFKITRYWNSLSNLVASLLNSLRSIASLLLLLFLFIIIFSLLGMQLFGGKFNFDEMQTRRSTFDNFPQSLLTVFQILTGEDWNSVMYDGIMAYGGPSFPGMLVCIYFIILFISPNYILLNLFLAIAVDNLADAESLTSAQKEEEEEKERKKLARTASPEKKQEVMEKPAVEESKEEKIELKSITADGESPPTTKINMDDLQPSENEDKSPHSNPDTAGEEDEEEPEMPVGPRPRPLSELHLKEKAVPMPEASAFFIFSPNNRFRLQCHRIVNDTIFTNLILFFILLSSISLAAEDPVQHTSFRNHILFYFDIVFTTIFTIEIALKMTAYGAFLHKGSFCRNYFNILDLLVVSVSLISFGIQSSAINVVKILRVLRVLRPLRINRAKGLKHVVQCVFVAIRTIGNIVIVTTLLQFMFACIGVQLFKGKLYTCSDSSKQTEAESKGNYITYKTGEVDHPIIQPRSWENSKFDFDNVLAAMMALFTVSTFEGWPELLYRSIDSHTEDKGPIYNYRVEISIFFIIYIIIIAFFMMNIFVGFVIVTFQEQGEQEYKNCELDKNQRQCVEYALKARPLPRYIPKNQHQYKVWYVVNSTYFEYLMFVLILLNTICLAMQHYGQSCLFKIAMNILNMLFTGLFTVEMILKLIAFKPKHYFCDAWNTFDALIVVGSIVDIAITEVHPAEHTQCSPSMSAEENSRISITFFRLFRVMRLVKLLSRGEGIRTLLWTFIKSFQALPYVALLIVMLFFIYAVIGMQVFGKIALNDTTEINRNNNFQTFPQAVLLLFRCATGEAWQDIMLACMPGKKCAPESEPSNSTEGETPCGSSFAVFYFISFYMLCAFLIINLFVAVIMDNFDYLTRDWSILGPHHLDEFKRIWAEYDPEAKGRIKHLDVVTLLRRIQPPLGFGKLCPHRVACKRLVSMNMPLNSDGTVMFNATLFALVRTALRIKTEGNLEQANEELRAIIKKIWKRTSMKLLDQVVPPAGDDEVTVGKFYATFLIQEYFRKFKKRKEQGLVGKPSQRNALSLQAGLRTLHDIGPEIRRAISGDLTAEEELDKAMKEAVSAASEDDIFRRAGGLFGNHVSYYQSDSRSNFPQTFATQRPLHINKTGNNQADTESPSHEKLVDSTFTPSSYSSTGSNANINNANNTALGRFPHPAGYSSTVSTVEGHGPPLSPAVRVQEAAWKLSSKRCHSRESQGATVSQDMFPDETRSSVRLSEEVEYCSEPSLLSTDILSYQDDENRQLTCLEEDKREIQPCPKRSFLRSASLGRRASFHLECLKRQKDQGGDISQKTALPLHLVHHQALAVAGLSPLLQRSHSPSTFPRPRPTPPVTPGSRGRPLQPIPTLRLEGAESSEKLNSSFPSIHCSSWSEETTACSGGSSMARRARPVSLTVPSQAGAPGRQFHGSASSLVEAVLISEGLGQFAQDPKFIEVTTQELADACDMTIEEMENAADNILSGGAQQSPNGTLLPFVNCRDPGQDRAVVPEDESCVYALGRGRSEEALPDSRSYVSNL
Mu-type opioid receptor, sequence (P35372 whole entry): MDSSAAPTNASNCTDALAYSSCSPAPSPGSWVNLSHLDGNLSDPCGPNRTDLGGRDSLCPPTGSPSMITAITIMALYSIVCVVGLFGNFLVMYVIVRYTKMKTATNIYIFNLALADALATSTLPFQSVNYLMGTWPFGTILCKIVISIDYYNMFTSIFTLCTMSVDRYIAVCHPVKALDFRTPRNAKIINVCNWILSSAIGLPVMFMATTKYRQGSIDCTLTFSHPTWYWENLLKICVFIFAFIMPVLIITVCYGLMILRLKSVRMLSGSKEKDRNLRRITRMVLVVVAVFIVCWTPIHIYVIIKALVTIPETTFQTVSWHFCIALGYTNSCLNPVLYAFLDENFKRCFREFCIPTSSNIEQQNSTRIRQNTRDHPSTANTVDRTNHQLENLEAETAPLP

On to `Oc1ncnc2[nH]ncc12` [ALLOPURINOL], for which the AC50 (commonly the concentration giving half of the maximal activity seen) in test [1] is above 30 µM; in [2] it was 2.88 µM; in test [3], above 10 µM; in test [4] it was above 30 µM; in test [5], above 30 µM; in [6] it was above 30 µM. Moreover, the AC50 in [7] is above 30 µM; in [8], above 10 µM; in [9], above 10 µM; in [10] it was above 30 µM; in test [11], above 30 µM; in test [12] it was above 30 µM. In addition, the figures for the AC50 in test [13] and in [14] were above 30 µM and above 10 µM, respectively.
As to `CN(CCOc1ccc(NS(C)(=O)=O)cc1)CCc1ccc(NS(C)(=O)=O)cc1` [DOFETILIDE], the AC50 is above 30 µM in [1]; above 10 µM in [2]; above 30 µM in test [4]; above 30 µM in test [5]; above 30 µM in test [15]; above 30 µM in [6]. Also, the AC50 was above 10 µM in test [7]; above 30 µM in [8]; above 30 µM in test [9]; above 30 µM in test [10]; above 30 µM in test [11]; above 30 µM in test [12]. Also, the AC50 is above 30 µM in test [13] and 0.78 µM in test [14].
Turning to `CC(C(=O)O)c1ccc(N2CC=CC2)c(Cl)c1` (configuration not stated) [PIRPROFEN], the AC50 in test [1] is above 30 µM; in [2], above 10 µM; in test [3], above 10 µM; in test [4], above 30 µM; in [5], above 30 µM; in test [15] it was above 30 µM. For the same compound, the AC50 is above 30 µM in test [6]; above 10 µM in test [7]; above 10 µM in [8]; above 10 µM in test [9]; above 30 µM in [10]; above 30 µM in [11]. Moreover, the AC50 in [12] was above 30 µM; in test [13], above 30 µM; in test [14], above 10 µM.
For `NC(=O)c1cnccn1` [PYRAZINAMIDE], the AC50 in test [1] was above 30 µM; in test [2], above 10 µM; in test [3], above 30 µM; in [4], above 30 µM; in [5] it was above 30 µM; in test [6], above 30 µM. For the same compound, the AC50 in [7], in test [8], in test [9], in test [10], in [11] and in [12] was above 30 µM in each case. The figures for the AC50 in [13] and in test [14] were 3.86 µM and above 30 µM, respectively.

(Values after ChEMBL document CHEMBL5291721, “A preclinical secondary pharmacology resource illuminates target-adverse drug reaction associations of marketed drugs” (Nat Commun, 2023).)
